# Experimental data from patent publication US12697317B2 (priority 2019, dated 2026).
# What was measured:
# [1] = Population PK modeling of PAA, Studies 2, 3 and 5; format: in vivo, human
# Protocol: (§1) Both non-compartmental analysis and population PK analysis were conducted to identify factors attributing to the PK of PAA, ORN, and PAGN. Ethnicity factor on the PK of PAA was explored using the PK data from Caucasian, Chinese, and Japanese healthy subjects in Studies 1 and 4.
# Hepatic impairment also altered PAA plasma exposure. To identify the factors contributing to PAA plasma exposure, population PK modeling was conducted. A one-compartment model with Michaelis-Menten kinetics describing the formation of PAGN from PAA adequately quantified PAA plasma concentration profiles in healthy subjects and patients. Body weight was identified as a significant covariate for the PK of PAA in both healthy subjects and patients. Other factors such as ethnicity and hepatic/renal impairment on the PK of PAA are described below.
# [2] = Plasma exposure by baseline creatinine clearance group (FIG. 1; Studies 2, 3 and 5)
# Protocol: Renal dysfunction is expected to elevate PAGN plasma concentrations. AE data from subjects with severe renal impairment were summarized. […] CLcr of 35 mL/min was chosen as a cut-off value in order to have relatively sufficient sample size for the group with relatively worse renal function.
# [3] = clinical; details: human, in vivo, iv
# Protocol: (§5) Plasma concentrations of ORN, PAA, PAGN, and urine concentrations of PAGN were measured using a validated LC-MS/MS method.
# Hepatic dysfunction on PAA PK was investigated using the PK data from patients in Studies 2 and 3. Renal dysfunction on PAA and PAGN plasma exposure was explored using the PK data from Studies 2, 3 and 5.
# [4] = PK of PAA, ORN and PAGN in severe renal impairment vs normal renal function, Study 5
# Protocol: Seven subjects with severe renal impairment and seven age, sex, and weight-matched subjects with normal renal function participated, wherein 5 males and 2 females participated in both groups.
# as §5
# [5] = Steady state plasma PAA in hospitalized patients with cirrhosis and HE, Study 3; format: in vivo, human; details: for median concentration of PAA at steady state: Study 3, Child-Pugh C patients
# Protocol: (§2) Pharmacokinetics Analysis
# as §1
# [6] = Safety/tolerability of LOPA in healthy subjects (SAD/MAD), Study 1; details: Study 1, healthy subjects, FIG. 2
# Protocol: as §2
# (§3) Adverse events (AEs) were assessed and coded using the Medical Dictionary for Regulatory Activities (MedDRA) preferred term and system organ class.
# (§4) The evaluation of potential correlation between central nervous system (CNS) AEs and PAA exposure was conducted on data from Studies 1-3. The first reported drug-related CNS AE was included in the analysis. For each such CNS AE, two PAA concentrations were identified based on the time of onset of the AE and the time of PAA assessment: (1) the closest PAA concentration before the onset of the AE; and (2) the closest PAA concentrations after the onset of the […] All time points were calculated relative to the start of study drug infusion.
# [7] = Safety of LOPA in hospitalized patients with cirrhosis, hyperammonemia and acute HE, Study 3; details: hospitalized patients with hyperammonemia and an acute episode of HE
# Protocol: as §2, §3, §4
# [8] = Safety/tolerability of LOPA in patients with stable cirrhosis, Study 2; details: Study 2, FIG. 3
# Protocol: as §2, §3, §4
# [9] = normal renal function, LOPA 15 g/24 hour IV
# [10] = severely impaired renal function, LOPA 7 g/24 hours IV
smiles,measurement,setting,value
"O=C(O)Cc1ccccc1 [PAA, phenylacetic acid]",PAA PK: increase in Cmax and AUC with dose,"IV LOPA from 10 g/4 h or 20 g/24 h up, healthy subjects and subjects with stable cirrhosis",greater than dose-proportional increase
same,Recovered PAA as unchanged compound in urine,after IV LOPA,< 1 % of the administered dose of PAA
same,impact of renal dysfunction on the exposure of PAA,"[1]; mild, moderate or severe renal dysfunction, population PK analysis",insignificant impact
same,"PAA exposure at steady state, Child-Pugh C higher than Child-Pugh B","[1]; population PK model, same body weight",36%
same,"PAA plasma concentrations, CLcr ≤35 mL/min group vs >35 mL/min group",[2],no difference
same,half-life,[3]; 3 g/4 h,0.65 h
same,half-life,[3]; 30 g/4 h,5.99 h
same,half-life,[3]; 30 g/24 h,1.25 h
same,half-life,[3]; 60 g/24 h,4.09 h
same,mean dose normalized PAA AUCt,[4]; [9],54.9 µg·h/mL/g
same,mean dose normalized PAA Cmax,[4]; [9],2.61 µg/mL/g
same,mean dose normalized PAA AUCt,[4]; [10],45.4 µg·h/mL/g
same,mean dose normalized PAA Cmax,[4]; [10],1.58 µg/mL/g
same,median concentration of PAA at steady state,[5]; 10 g/24 hr (n=23),118 µg/mL
same,median concentration of PAA at steady state,[5]; 15 g/24 hr (n=38),120 µg/mL
same,"plasma PAA concentration at steady state, higher in Child-Pugh C than Child-Pugh B patients","[5]; Study 3, LOPA 15 g/24 h, during infusion period",approximately 35%
same,severity of CNS AEs vs PAA plasma concentrations,[6],appeared to be correlated
same,PAA exposure related neurotoxicity,[7],No PAA exposure related neurotoxicity
same,PAA concentrations vs CNS AE occurrence,[8],No correlation
